Where a name gives a salt, the structure may show the parent alone.
Tests used:
[1] = tested on: mouse models of type 2 diabetes; assay: Oral glucose tolerance test after 4-week treatment (Example 20); assay type: in vivo, KK mice; settings: glucose 2.5 g/kg by gavage one hour after last dose of 4-week gavage treatment
Experimental: 2.4 Oral glucose tolerance test: one hour after the last administration, the remaining mice in the diabetic model control group, metformin treatment group, polypeptide treatment group and normal control group (10 mice in each group) after the selection in experiment 2.3 were administered by gavage with glucose at a dose of 2.5 g/kg.

[2] = tested on: mouse models of type 2 diabetes; assay: Insulin tolerance test after 4-week treatment (Example 20); assay type: in vivo, KK mice; settings: insulin 0.5 U/mL at 0.05 ml/10 g s.c. one hour after last dose of 4-week gavage treatment
[3] = tested on: mouse models of type 2 diabetes; assay: Polypeptide mixture vs metformin, mouse models of type 2 diabetes, single gavage (Example 17); settings: KK mice, polypeptide 2 mg/mL, metformin 20 mg/mL, each 0.05 ml/10 g
[4] = tested on: mouse models of type 2 diabetes; assay: Hypoglycemic activity of solid compositions, STZ/high-fat diet diabetic mice, gavage 4 weeks (Example 24); assay type: in vivo; settings: fasting; STZ + high-fat diet C57BL/6 mice; gavage once a day; compositions 2 mg/mL polypeptide O, metformin 20 mg/mL (100 mg/Kg), each 0.05 ml/10 g
Experimental: Male C57BL/6 mice at 4 weeks of age, after adapting to the environment for 5 days, were randomly divided into normal control group (10 mice) and model-to-be established groups (90 mice). The mice in the normal control group were fed with normal diet. The mice in the model-to-be established groups were fed with high-fat diet and intraperitoneally injected with streptozotocin (STZ) in citrate buffer at a dose of 45 mg/kg. After injection, the mice were fasted for 1.5 hours and injected for 5 consecutive days, and then the diabetic mouse model was established. […] The mice with the fasting blood glucouse level between 10.0 and 20.0 mmol/L and at the same time having polydipsia and polyuria were selected out as the diabetic mice. Then, the selected diabetic mice were randomly divided into five groups: model control group, metformin group, Composition D group, […], and […], 10 mice in each group. The mice were administered by gavage with the corresponding drug: normal saline (100 μL for each mouse), metformin (0.05 ml/10 g), composition D (0.05 ml/10 g), composition E (0.05 ml/10 g) and composition F (0.05 ml/10 g), respectively, once a day for 4 weeks. The mice in normal control group were administered with normal saline (100 μL for each mouse). The diabetic mice were fed with high-fat diet continuously and drank water freely, and the mice in normal control group were fed with normal diet and drank water freely.

diabetic mice [5] = assay: Fasting blood glucose in STZ diabetic mice, intragastric 4 weeks (Example 25); assay type: in vivo, BALB/c mice
Experimental: (§1) Male BALB/c mice at 7 weeks of age, after adapting to the environment for 2 days, were randomly divided into normal control group (10 mice) and model-to-be established groups (70 mice). The mice in the normal control group were fed with normal diet. The mice in the model-to-be established groups were fed with high-fat diet, intraperitoneally injected with streptozotocin (STZ) in citrate buffer at a dose of 100 mg/kg, and then the diabetic mouse model was established. […] The mice with the blood glucouse level higher than 11.0 mmol/L and at the same time having polydipsia and polyuria were selected out as the diabetic mice. Then the selected diabetic mice were randomly divided into four groups: model control group, metformin group, Composition E group and Composition F group, 10 mice in each group. The mice were intragastric administered with the corresponding drugs: normal saline (100 μL for each mouse), metformin (0.05 ml/10 g), Composition E (0.05 ml/10 g) and Composition F (0.05 ml/10 g), respectively, once a day for 4 weeks. The mice in normal control group were administered with normal saline (100 μL for each mouse). The diabetic mice were fed with high-fat diet continuously and drank water freely, and the mice in normal control group were fed with normal diet and drank water freely.

diabetic mice [6] = assay: Serum TC and TG in STZ diabetic mice after 4 weeks (Example 25); assay type: in vivo; settings: after 4 weeks intragastric treatment, STZ + high-fat diet BALB/c mice
Experimental: as §1, with “The diabetic mice were fed with high-fat diet continuously and drank water freely, and the mice in normal control group were fed with normal diet and drank water freely.” left out
After the end of experiment, blood samples were collected from the eyeballs of the mice, serum was separated and the serum levels of TC and TG were detected.

[7] = tested on: mouse models of type 2 diabetes; assay: Pancreas weight, H&E staining and immunohistochemistry after 4-week treatment (Example 20); assay type: in vivo; settings: KK mice sacrificed after treatment for four weeks by gavage
Description: 2.5 All mice were sacrificed after treatment for four weeks, and the pancreatic tissues were weighed, stained with H&E and detected by immunohistochemistry.

[8] = tested on: mouse models of type 2 diabetes; assay: Blood glucose during 4-week gavage treatment, polypeptide mixture vs metformin (Example 20); settings: KK mice, metformin 20 mg/mL, each 0.05 ml/10 g
[9] = fasting, STZ (100 mg/kg) + high-fat diet BALB/c mice, intragastric once a day, compositions 2 mg/mL polypeptide O, metformin 200 mg/mL (1000 mg/kg), each 0.05 ml/10 g
[10] = gavage once a day, polypeptide tablet suspension 2 mg/ml

SMILES: CN(C)C(=N)N=C(N)N [Metformin, Metformin hydrochloride]
- 0 min blood glucose level [1]: 6.8 ± 0.8 mmol/L
- 30 min blood glucose level [1]: 16.8 ± 4.1 mmol/L
- 60 min blood glucose level [1]: 13.4 ± 2.4 mmol/L
- 90 min blood glucose level [1]: 10.6 ± 3.2 mmol/L
- 120 min blood glucose level [1]: 8.2 ± 1.7 mmol/L
- 0 min blood glucose level [2]: 6.8 ± 0.8 mmol/L
- 30 min blood glucose level [2]: 4.1 ± 1.1 mmol/L
- 60 min blood glucose level [2]: 4.8 ± 1.2 mmol/L
- 90 min blood glucose level [2]: 5.4 ± 0.7 mmol/L
- 120 min blood glucose level [2]: 6.2 ± 1.3 mmol/L
- Blood glucose level at 15 min after administration [3]: 12.6 ± 1.2 mmol/L
- Blood glucose level at 30 min after administration [3]: 10.4 ± 0.9 mmol/L
- Blood glucose level at 45 min after administration [3]: 9.3 ± 0.8 mmol/L
- Blood glucose level at 60 min after administration [3]: 8.2 ± 0.5 mmol/L
- Blood glucose level prior to administration ([3]; baseline): 14.2 ± 1.1 mmol/L
- Blood glucose level after four weeks [4]: 9.2 ± 0.9 mmol/L
- Blood glucose level after one week [4]: 11.9 ± 0.6 mmol/L
- Blood glucose level after three weeks [4]: 11.3 ± 1.2 mmol/L
- Blood glucose level after two weeks [4]: 13.2 ± 0.5 mmol/L
- Blood glucose level after four weeks (diabetic mice [5]; [9]): 8.0 ± 0.7 mmol/L
- Blood glucose level after one week (diabetic mice [5]; [9]): 12.6 ± 0.7 mmol/L
- Blood glucose level after three weeks (diabetic mice [5]; [9]): 12.3 ± 1.0 mmol/L
- Blood glucose level after two weeks (diabetic mice [5]; [9]): 13.5 ± 0.7 mmol/L
- control of blood glucose (conclusion) (diabetic mice [5]; metformin at ultra-high-dose 1000 mg/kg): could not control blood glucose effectively
- TC (diabetic mice [6]): 2.32 ± 0.78 mmol/L
- TG (diabetic mice [6]): 1.87 ± 1.26 mmol/L
- Pancreas weight/body weight (%) [7]: 1.32 ± 0.06%
- Initial blood glucose level ([8]; gavage once a day for 4 weeks, polypeptide tablets (mixture:hydroxypropyl methylcellulose 8:2) suspension 2 mg/ml, baseline): 9.3 ± 1.1 mmol/L
- Blood glucose level after four weeks [8, 10]: 6.8 ± 0.8 mmol/L
- Blood glucose level after one week [8, 10]: 8.1 ± 1.1 mmol/L
- Blood glucose level after three weeks [8, 10]: 7.3 ± 1.2 mmol/L
- Blood glucose level after two weeks [8, 10]: 7.2 ± 0.9 mmol/L
